The source of these data is US20240148821A1, “PHARMACEUTICAL USE OF CYCLIC PEPTIDE COMPOUND” (CHUGAI SEIYAKU KABUSHIKI KAISHA, priority 2021, published 2024).

Numbered stars: 1 amine (or outer) side, 2 acyl side, 3 side chain; on linkers, the order of the positions; unused ones are H or OH. Bridge positions count the residues as written; N and C are the ends. Square brackets hold non-standard residues; d marks the D form. Peptide text beside a SMILES is read from it. * marks the point of attachment. hPhe(3,5-F2-4-CF3) = N[C@@H](CCc1cc(F)c(C(F)(F)F)c(F)c1)C(=O)O; hPhe(3-Cl-4-CF3) = N[C@@H](CCc1ccc(C(F)(F)F)c(Cl)c1)C(=O)O; NMePhe(4-CF3) = CN[C@@H](Cc1ccc(C(F)(F)F)cc1)C(=O)O; NMeAbu(4,4,4-F3) = CN[C@@H](CC(F)(F)F)C(=O)O; X110 = Cc1ccc(I)cc1C[C@H](N[*:1])C(=O)[*:2]; NMeGly(cPent) = CN[C@H](C(=O)O)C1CCCC1; Phe(3-I) = N[C@@H](Cc1cccc(I)c1)C(=O)O; Pro(4,4-F2) = O=C(O)[C@@H]1CC(F)(F)CN1; NMeGly(cBu) = CN[C@H](C(=O)O)C1CCC1; NMeY = CN[C@@H](Cc1ccc(O)cc1)C(=O)O; NMeCha = CN[C@@H](CC1CCCCC1)C(=O)O; NMeChg = CN[C@H](C(=O)O)C1CCCCC1; NMeI = CC[C@H](C)[C@H](NC)C(=O)O; NMeD = CN[C@@H](CC(=O)O)C(=O)O; NMeL = CN[C@@H](CC(C)C)C(=O)O; Chg = N[C@H](C(=O)O)C1CCCCC1; NMeAbu = CC[C@H](NC)C(=O)O; NMeA = CN[C@@H](C)C(=O)O; NMeAib = CNC(C)(C)C(=O)O; Nle = CCCC[C@H](N)C(=O)O; Piperidide = C1CCN(*)CC1; Pra = C#CC[C@H](N)C(=O)O; Pyrrolidide = C1CCN(*)C1; Ac5c = NC1(C(=O)O)CCCC1; Aze = O=C(O)[C@@H]1CCN1; Sar = CNCC(=O)O

The test relates to Human pancreatic cancer cell line AsPC-1 (G12D mutation Kras). In words: AsPC-1 cell growth inhibition (AsPC-1 CGI). As to conditions: read-out: AsPC-1 cell growth inhibition, 50% growth inhibitory concentration (IC50 value); 96 hours, CellTiter-Glo, values classified in ranges. Type of test: cell-based.
Experimental: Test compounds were serially dilated with dimethyl sulfoxide, and 200 nL was then dispensed to a U-bottom 96-well plate using Labcyte Echo. […] The cell suspension was dispensed to a. plate containing a test compound at 100 μL per well and incubated at 37° C. in a 5% carbon dioxide gas incubator. 96 hours later, 80 μL of CellTiter-Glo (Promega) was added to each well and fluorescence was measured.
Regarding `CC[C@H](C)[C@@H]1NC(=O)[C@H](CC(C)C)N(C)C(=O)C[C@@H](C(=O)N2CCCC2)N(C)C(=O)[C@H]([C@@H](C)CC)N(C)C(=O)C2(CCCC2)NC(=O)[C@@H]2CCCN2C(=O)[C@H](CCc2cc(F)c(C(F)(F)F)c(F)c2)NC(=O)CN(C)C(=O)[C@H](Cc2ccc(C(F)(F)F)cc2)N(C)C(=O)[C@@H]2CCN2C(=O)[C@H](C)N(C)C1=O` [Compound 1343] ([NMeL]I[NMeA][Aze][NMePhe(4-CF3)][Sar][hPhe(3,5-F2-4-CF3)]P[Ac5c][NMeI][NMeD]-Pyrrolidide; lactam N-11), the IC50 was not above 20 nM.

For the molecule `CC[C@H](C)[C@@H]1NC(=O)[C@H](CC(C)C)N(C)C(=O)C[C@@H](C(=O)N2CCCCC2)N(C)C(=O)[C@H](C2CCCCC2)N(C)C(=O)C2(CCCC2)NC(=O)[C@@H]2CCCN2C(=O)[C@H](CCc2ccc(C(F)(F)F)c(Cl)c2)NC(=O)CN(C)C(=O)[C@H](CC2CCCCC2)N(C)C(=O)CN(C)C(=O)[C@H](C)N(C)C1=O` [Compound 1345] ([NMeL]I[NMeA][Sar][NMeCha][Sar][hPhe(3-Cl-4-CF3)]P[Ac5c][NMeChg][NMeD]-Piperidide; lactam N-11), the IC50 was more than 500 nM.

In the case of `CC[C@H](C)[C@@H]1NC(=O)[C@H](CC(C)C)N(C)C(=O)C[C@@H](C(=O)N(C)C)N(C)C(=O)[C@H](C2CCCC2)N(C)C(=O)C2(CCCC2)NC(=O)[C@@H]2CC(F)(F)CN2C(=O)[C@H](CCc2cc(F)c(C(F)(F)F)c(F)c2)NC(=O)CN(C)C(=O)[C@H](CC2CCCCC2)N(C)C(=O)[C@@H]2CCN2C(=O)[C@H](C)N(C)C1=O` [Compound 1346] ([NMeL]I[NMeA][Aze][NMeCha][Sar][hPhe(3,5-F2-4-CF3)][Pro(4,4-F2)][Ac5c][NMeGly(cPent)][NMeD]-NMe2; lactam N-11), the IC50 is not above 20 nM.

Regarding `C#CC[C@@H]1NC(=O)[C@H](Cc2cccc(I)c2)NC(=O)CN(C)C(=O)[C@H](Cc2ccc(OC)cc2)N(C)C(=O)[C@@H]2CCN2C(=O)[C@H](C)N(C)C(=O)[C@H]([C@@H](C)CC)NC(=O)[C@H](CC(C)C)N(C)C(=O)C[C@@H](C(=O)N2CCCCC2)N(C)C(=O)[C@H](CC(C)C)NC(=O)C(C)(C)N(C)C1=O` [Compound 1350] ([NMeL]I[NMeA][Aze][NMeY](Me)[Sar][Phe(3-I)][Pra][NMeAib]L[NMeD]-Piperidide; lactam N-11), the IC50 was more than 500 nM.

On to `CC[C@H](C)[C@@H]1NC(=O)[C@H](CC(C)C)N(C)C(=O)C[C@@H](C(=O)N2CCCCC2)N(C)C(=O)[C@H](C2CCCCC2)NC(=O)C2(CCCC2)NC(=O)[C@@H]2CCCN2C(=O)[C@H](CCc2ccc(C(F)(F)F)c(Cl)c2)NC(=O)CN(C)C(=O)[C@H](CC2CCCCC2)N(C)C(=O)CN(C)C(=O)CN(C)C1=O` [Compound 1354] ([NMeL]I[Sar][Sar][NMeCha][Sar][hPhe(3-Cl-4-CF3)]P[Ac5c][Chg][NMeD]-Piperidide; lactam N-11), for which the IC50 was more than 500 nM.

As to `CC[C@H](C)[C@@H]1NC(=O)[C@H](CC(F)(F)F)N(C)C(=O)C[C@@H](C(=O)N2CCCC2)N(C)C(=O)[C@H](C2CCCCC2)N(C)C(=O)C2(CCCC2)NC(=O)[C@@H]2CC(F)(F)CN2C(=O)[C@H](CCc2ccc(C(F)(F)F)c(Cl)c2)NC(=O)CN(C)C(=O)[C@H](CC2CCCCC2)N(C)C(=O)CN(C)C(=O)CN(C)C1=O` [Compound 1357] ([NMeAbu(4,4,4-F3)]I[Sar][Sar][NMeCha][Sar][hPhe(3-Cl-4-CF3)][Pro(4,4-F2)][Ac5c][NMeChg][NMeD]-Pyrrolidide; lactam N-11), the IC50 is not above 20 nM.

As for `CCCC[C@@H]1NC(=O)[C@H](Cc2cc(I)ccc2C)NC(=O)CN(C)C(=O)[C@H](Cc2ccc(OC)cc2)N(C)C(=O)[C@@H]2CCN2C(=O)[C@H](C)N(C)C(=O)[C@H]([C@@H](C)CC)NC(=O)[C@H](CC)N(C)C(=O)C[C@@H](C(=O)N2CCCCC2)N(C)C(=O)[C@H](CC(C)C)NC(=O)C(C)(C)N(C)C1=O` [Compound 1358] ([NMeAbu]I[NMeA][Aze][NMeY](Me)[Sar][X110][Nle][NMeAib]L[NMeD]-Piperidide; lactam N-11), the IC50 was more than 500 nM.

Turning to `C#CC[C@@H]1NC(=O)[C@H](Cc2cccc(I)c2)NC(=O)CN(C)C(=O)[C@H](Cc2ccc(C(F)(F)F)cc2)N(C)C(=O)CN(C)C(=O)CN(C)C(=O)[C@H]([C@@H](C)CC)NC(=O)[C@H](CC(C)C)N(C)C(=O)C[C@@H](C(=O)N2CCCCC2)N(C)C(=O)[C@H](CC(C)C)NC(=O)C(C)(C)N(C)C1=O` [Compound 1361] ([NMeL]I[Sar][Sar][NMePhe(4-CF3)][Sar][Phe(3-I)][Pra][NMeAib]L[NMeD]-Piperidide; lactam N-11), the IC50 is more than 500 nM.

With `CC[C@H](C)[C@@H]1NC(=O)[C@H](C2CCC2)N(C)C(=O)C[C@@H](C(=O)N2CCCC2)N(C)C(=O)[C@H](C2CCCCC2)N(C)C(=O)C2(CCCC2)NC(=O)[C@@H]2CC(F)(F)CN2C(=O)[C@H](CCc2ccc(C(F)(F)F)c(Cl)c2)NC(=O)CN(C)C(=O)[C@H](CC2CCCCC2)N(C)C(=O)CN(C)C(=O)CN(C)C1=O` [Compound 1363] ([NMeGly(cBu)]I[Sar][Sar][NMeCha][Sar][hPhe(3-Cl-4-CF3)][Pro(4,4-F2)][Ac5c][NMeChg][NMeD]-Pyrrolidide; lactam N-11), the IC50 was not above 20 nM.
